ChEMBL document CHEMBL1201862, “PubChem BioAssay data set” (2004)
Activity calls are given as the source filed them.

Legend:
[1] = inhibitors of intracellular T. cruzi replication, confirmation, NIH3T3 host cells, beta-gal luminescence (AID 2044); format: functional, cell-based;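 further: intracellular parasites grown in NIH/3T3 mouse fibroblasts as host cells; luminescent beta-galactosidase reporter signal from transgenic T. cruzi replicating inside host cells; inhibitors lower the luminescence signal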
[2] = cytotoxicity toward NIH3T3 fibroblasts, dose response, counter-screen, cell-based, ATP luminescence, mouse fibroblasts (AID 2010); format: functional;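 further: cells exposed to compound for about 90 hours before reading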
[3] = biological target: DNA dC->dU-editing enzyme APOBEC-3A (Homo sapiens, UniProt P31941); test: Dose Response confirmation of small molecule APOBEC3A DNA Deaminase Inhibitors via a fluorescence-based single-stranded DNA deaminase assay. [Related pubchem assays (depositor defined):AID493011, AID493024]; format: functional
Chain of DNA dC->dU-editing enzyme APOBEC-3A (P31941 whole entry): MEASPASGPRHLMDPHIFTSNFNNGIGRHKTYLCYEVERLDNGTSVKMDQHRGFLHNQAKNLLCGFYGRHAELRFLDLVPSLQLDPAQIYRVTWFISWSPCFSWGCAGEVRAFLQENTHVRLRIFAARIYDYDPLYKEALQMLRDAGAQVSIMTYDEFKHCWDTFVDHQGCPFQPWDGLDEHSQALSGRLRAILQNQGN

[4] = biological target: DNA dC->dU-editing enzyme APOBEC-3G (Homo sapiens, UniProt Q9HC16); format: functional;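 further: Dose-response counterscreen measuring inhibition of APOBEC3G DNA deaminase activity, run while confirming APOBEC3A inhibitors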
Chain of DNA dC->dU-editing enzyme APOBEC-3G (Q9HC16 whole entry): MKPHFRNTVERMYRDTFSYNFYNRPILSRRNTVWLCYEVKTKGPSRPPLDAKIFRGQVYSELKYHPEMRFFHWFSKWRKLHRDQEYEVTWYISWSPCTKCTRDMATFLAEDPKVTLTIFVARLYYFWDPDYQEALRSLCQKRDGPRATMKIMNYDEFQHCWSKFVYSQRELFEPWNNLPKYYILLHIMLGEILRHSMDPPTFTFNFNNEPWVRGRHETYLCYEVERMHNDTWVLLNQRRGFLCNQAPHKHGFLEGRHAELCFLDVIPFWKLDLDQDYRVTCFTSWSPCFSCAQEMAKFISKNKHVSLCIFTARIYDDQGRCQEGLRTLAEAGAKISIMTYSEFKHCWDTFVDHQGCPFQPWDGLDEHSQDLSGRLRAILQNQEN

[5] = biological target: T1, Kappa-type opioid receptor (Homo sapiens, UniProt P41145); test: KOR agonist analogs, arrestin-GFP redistribution, SAR follow-up, imaging, image-based, set 3 (AID 488833); format: functional
T1 sequence (P41145 whole entry): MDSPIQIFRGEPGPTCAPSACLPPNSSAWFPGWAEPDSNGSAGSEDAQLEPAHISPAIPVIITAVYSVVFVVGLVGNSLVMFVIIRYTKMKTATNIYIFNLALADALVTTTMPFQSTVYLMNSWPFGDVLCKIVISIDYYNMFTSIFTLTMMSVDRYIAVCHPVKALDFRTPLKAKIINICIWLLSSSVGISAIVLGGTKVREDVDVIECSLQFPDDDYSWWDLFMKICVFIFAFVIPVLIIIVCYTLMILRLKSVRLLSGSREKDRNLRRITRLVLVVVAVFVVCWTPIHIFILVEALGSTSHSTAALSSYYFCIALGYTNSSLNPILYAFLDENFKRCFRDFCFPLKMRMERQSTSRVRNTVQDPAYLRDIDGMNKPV

Mu-type opioid receptor = Mu-type opioid receptor (Homo sapiens, UniProt P35372); test: SAR Analysis of Agonists of the MOR Receptor using an Image-Based Assay - Set 3. [Related pubchem assays (depositor defined):AID1777, AID1785, AID1786, AID1966, AID2133, AID2136, AID2284, AID2285, AID2352]; format: functional
[6] = biological target: Delta-type opioid receptor (Homo sapiens, UniProt P41143); test: SAR Analysis of Agonists of the DOR Receptor using an Image-Based Assay - Set 3. [Related pubchem assays (depositor defined):AID1777, AID1786]; format: functional
Chain of Delta-type opioid receptor (P41143 whole entry): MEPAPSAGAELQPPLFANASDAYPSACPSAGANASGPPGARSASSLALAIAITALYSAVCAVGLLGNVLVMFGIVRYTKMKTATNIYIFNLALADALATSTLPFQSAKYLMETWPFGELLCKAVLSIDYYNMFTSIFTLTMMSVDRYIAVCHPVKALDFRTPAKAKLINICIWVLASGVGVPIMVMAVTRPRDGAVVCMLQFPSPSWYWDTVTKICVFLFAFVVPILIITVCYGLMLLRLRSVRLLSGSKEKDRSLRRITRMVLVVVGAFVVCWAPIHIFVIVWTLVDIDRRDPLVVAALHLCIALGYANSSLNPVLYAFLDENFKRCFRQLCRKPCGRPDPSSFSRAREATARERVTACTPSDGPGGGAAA

[7] = biological target: T1, Kappa-type opioid receptor; test: SAR analysis of small molecule agonists of the kappa opioid receptor via a luminescent beta-arrestin assay - Set 3. [Related pubchem assays (depositor defined):AID1777, AID1785, AID1786, AID1966, AID2133, AID2136, AID2284, AID2500]; format: functional
[8] = biological target: T1, Kappa-type opioid receptor; test: SAR analysis of small molecule antagonists of the kappa opioid receptor via a luminescent beta-arrestin assay - Set 4. [Related pubchem assays (depositor defined):AID1777, AID1778, AID1785, AID1786, AID1966, AID2133, AID2136, AID2285]; format: functional
[9] = biological target: T1, Kappa-type opioid receptor; test: SAR analysis of small molecule antagonists of the kappa opioid receptor via a luminescent beta-arrestin assay - Set 5. [Related pubchem assays (depositor defined):AID1778, AID1785]; format: functional
[10] = NIH-3T3 fibroblast cytotoxicity, dose response, cytotoxicity control, cell-based, fluorescence, Alamar Blue, secondary assay (AID 2327); format: functional;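 further: NIH-3T3 mouse fibroblasts cultured with fluconazole at 8 µg/mL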
[11] = inhibitors of firefly luciferase expression or activity, dose response, H4 neuroglioma cells, luminescence (AID 1990); format: functional, cell-based
[12] = luciferase reporter signal reduction – luminescence, H4-C neuroglioblastoma cells, dose response (AID 2458); format: functional, cell-based;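 further: H4 neuroglioblastoma cells stably carrying a luciferase reporter gene fusion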
[13] = system: Streptococcus sp. 'group A'; test: growth inhibition of control SK(-) GAS strain, dose response, counter-screen for streptokinase expression inhibitor project, luminescence, kanamycin, BacTiterGlo, confirmation (AID 1900); format: functional, organism-based
BJ [14] = test: cytotoxicity toward BJ-TERT fibroblasts, dose response, cell-based, RAS-independent, luminescence (AID 1933); format: functional; conditions: Homo sapiens
cells = format: functional, cell-based
[15] = Luminescence Cell-Based Dose Response HTS to Identify Inhibitors of 5'UTR Stem-Loop Driven Prion Protein mRNA Translation in H4 Neuroglioblastoma Cells. [Related pubchem assays: 1827 (Project Summary), 1813 (Primary HTS)]; format: functional
[16] = inhibitors of SNCA 5'UTR-driven reporter translation, confirmation, H4 neuroglioma cells, luminescence (AID 1988); format: functional, cell-based
BJ [17] = test: cells; format: functional, cell-based; conditions: Homo sapiens
[18] = C. albicans growth with fluconazole, confirmation, fluorescence, retest (AID 2467); format: functional, cell-based
[19] = microbe, parasite or virus in culture; format: functional; conditions: Mycobacterium tuberculosis
[20] = biological target: Serine/threonine-protein phosphatase (Candida dubliniensis (strain CD36 / CBS 7987 / NCPF 3949 / NRRLY-17841) (Yeast), UniProt B9W6M3); test: calcineurin pathway inhibitors in yeast reporter, dose response, S. cerevisiae, CDRE-lacZ, luminescence, secondary (AID 2388); format: functional, cell-based;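 further: yeast reporter cells carrying a calcineurin-responsive lacZ construct stimulated with calcium chloride; luminescent beta-galactosidase reporter signal in whole cells rather than isolated phosphatase activity; potency for inhibition where a drop in reporter signal means calcineurin blockade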
Chain of Serine/threonine-protein phosphatase (B9W6M3 whole entry): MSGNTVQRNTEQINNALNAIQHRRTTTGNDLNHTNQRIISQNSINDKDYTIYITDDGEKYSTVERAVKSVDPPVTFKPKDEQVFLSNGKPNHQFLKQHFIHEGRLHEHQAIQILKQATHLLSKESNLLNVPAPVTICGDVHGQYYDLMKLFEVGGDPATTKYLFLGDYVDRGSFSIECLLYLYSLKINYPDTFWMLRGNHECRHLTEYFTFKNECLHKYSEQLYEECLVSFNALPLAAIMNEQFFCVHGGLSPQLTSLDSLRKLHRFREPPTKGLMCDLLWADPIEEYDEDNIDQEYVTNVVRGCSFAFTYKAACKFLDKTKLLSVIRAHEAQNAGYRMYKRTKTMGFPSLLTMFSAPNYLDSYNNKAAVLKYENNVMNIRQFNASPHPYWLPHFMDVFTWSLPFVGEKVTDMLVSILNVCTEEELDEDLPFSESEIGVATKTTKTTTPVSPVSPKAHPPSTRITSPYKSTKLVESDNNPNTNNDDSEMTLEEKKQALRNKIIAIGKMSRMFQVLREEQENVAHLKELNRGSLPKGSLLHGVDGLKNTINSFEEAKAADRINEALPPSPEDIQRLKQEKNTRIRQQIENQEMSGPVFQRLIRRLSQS

BJ [21] = test: cytotoxicity toward BJ-TERT-LT-ST fibroblasts, dose response, cell-based, RAS-independent, luminescence (AID 1935); format: functional; conditions: Homo sapiens;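 further: BJ fibroblasts immortalized with TERT plus LT and ST oncogenes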
[22] = cytotoxicity toward DRD oncogenic fibroblasts, dose response, cell-based, non-viral oncogenic, luminescence (AID 1934); format: functional; conditions: Homo sapiens
Streptococcus = test: Group A Streptococcus viability loss, dose response, counter-screen for streptokinase expression inhibitor project, luminescence, BacTiterGlo (AID 1915); format: functional, organism-based;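 further: potency for reduction of bacterial viability or growth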
[23] = inhibitors of SNCA 5'UTR-driven translation, confirmation, luminescence, H4 neuroglioblastoma cells, dose confirmation (AID 2454); format: functional, cell-based;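 further: H4 neuroglioblastoma cells carrying an alpha-synuclein 5'UTR luciferase reporter; potency for inhibition of the luciferase signal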
[24] = biological target: NACHT, LRR and PYD domains-containing protein 3 (Homo sapiens, UniProt Q96P20); test: NALP3 inhibitors in yeast, dose response, luminescent (AID 488799); format: functional
Chain of NACHT, LRR and PYD domains-containing protein 3 (Q96P20 whole entry, the tested form may be a part): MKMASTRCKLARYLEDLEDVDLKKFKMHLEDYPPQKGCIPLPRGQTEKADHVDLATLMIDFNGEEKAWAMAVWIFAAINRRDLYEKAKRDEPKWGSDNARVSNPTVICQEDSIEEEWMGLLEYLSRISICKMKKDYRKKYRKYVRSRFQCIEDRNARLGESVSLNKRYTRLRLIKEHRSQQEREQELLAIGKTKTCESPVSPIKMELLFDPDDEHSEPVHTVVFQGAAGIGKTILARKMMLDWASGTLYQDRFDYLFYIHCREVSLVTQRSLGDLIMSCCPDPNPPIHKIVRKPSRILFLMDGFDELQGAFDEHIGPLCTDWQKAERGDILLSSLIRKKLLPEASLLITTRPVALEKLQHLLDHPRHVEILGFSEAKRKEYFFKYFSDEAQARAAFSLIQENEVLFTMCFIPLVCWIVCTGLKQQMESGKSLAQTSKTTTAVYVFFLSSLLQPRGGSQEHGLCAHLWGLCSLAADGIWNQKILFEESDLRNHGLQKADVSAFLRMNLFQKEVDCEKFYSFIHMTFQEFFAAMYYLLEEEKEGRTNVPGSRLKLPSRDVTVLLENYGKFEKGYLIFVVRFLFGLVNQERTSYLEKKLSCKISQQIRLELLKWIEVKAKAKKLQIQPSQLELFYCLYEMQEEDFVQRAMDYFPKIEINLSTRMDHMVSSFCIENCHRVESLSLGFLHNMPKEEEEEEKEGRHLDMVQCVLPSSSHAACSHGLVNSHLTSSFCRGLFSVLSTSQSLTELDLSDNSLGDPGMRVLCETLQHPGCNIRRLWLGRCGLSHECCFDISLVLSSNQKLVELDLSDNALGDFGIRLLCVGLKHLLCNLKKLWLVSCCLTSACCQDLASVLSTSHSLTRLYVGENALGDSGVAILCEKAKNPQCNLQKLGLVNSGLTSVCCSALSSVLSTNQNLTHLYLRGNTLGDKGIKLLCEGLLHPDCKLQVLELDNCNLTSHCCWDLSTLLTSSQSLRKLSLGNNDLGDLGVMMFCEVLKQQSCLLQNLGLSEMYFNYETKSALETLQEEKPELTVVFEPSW

[25] = biological target: Intestinal-type alkaline phosphatase (Homo sapiens, UniProt P09923); test: activation of human intestinal alkaline phosphatase – biochemical, dose response (AID 488873); format: functional
[26] = biological target: Alkaline phosphatase, placental type (Homo sapiens, UniProt P05187); test: PLAP enzyme inhibitors, confirmation, biochemical, luminescence (AID 1512); format: functional
Chain of Alkaline phosphatase, placental type (P05187 whole entry): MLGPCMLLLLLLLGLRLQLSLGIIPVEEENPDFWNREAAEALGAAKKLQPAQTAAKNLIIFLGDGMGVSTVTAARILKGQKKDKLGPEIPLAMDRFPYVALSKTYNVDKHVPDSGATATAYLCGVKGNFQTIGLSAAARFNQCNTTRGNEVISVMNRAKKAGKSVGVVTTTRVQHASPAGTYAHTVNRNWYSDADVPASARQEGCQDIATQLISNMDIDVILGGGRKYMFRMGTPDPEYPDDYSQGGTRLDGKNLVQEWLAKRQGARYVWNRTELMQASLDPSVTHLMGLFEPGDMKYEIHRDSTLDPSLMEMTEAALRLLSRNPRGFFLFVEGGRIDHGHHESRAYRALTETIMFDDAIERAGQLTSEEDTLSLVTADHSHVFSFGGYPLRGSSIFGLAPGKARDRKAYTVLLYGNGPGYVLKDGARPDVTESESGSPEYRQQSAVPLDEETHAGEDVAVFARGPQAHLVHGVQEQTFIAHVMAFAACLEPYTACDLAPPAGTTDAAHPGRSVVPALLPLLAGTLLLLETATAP

[27] = biological target: Intestinal-type alkaline phosphatase (Mus musculus, UniProt P24822); test: mouse intestinal alkaline phosphatase activators, dose response, biochemical, luminescence, uHTS hits (AID 488783); format: functional
CHO = test: cytotoxicity in TLR9-MyD88 CHO cells, dose response, cytotoxicity control for TLR9-MyD88 binding inhibitor project, cell-based, luminescence (AID 588339); format: functional, hamster; conditions: Cricetulus griseus;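 further: CHO cells stably coexpressing TLR9 and MyD88 fusions from primary screen; compound exposure lasted 48 hours before viability readout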
BJ [28] = test: cytotoxicity toward Ras-transformed BJeLR fibroblasts, dose response, cell-based, alamar blue fluorescence, cherrypicked samples (AID 2631); format: functional; conditions: Homo sapiens;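 further: confirmatory dose-response assay in RAS-dependent BJ fibroblasts engineered with TERT, LT and ST, with cytotoxicity read by fluorescence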
Beta Lactamase = Beta Lactamase (Pseudomonas aeruginosa, UniProt Q932Y6); test: beta-lactamase reporter inhibitor potency, dose response, artefact control for TLR9-MyD88 binding inhibitor project, BLA reporter cells, FRET fluorescence (AID 588341); format: cell-based;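 further: cell based assay in CHO-K1 cells stably expressing beta-lactamase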
Chain of Beta Lactamase (Q932Y6 whole entry): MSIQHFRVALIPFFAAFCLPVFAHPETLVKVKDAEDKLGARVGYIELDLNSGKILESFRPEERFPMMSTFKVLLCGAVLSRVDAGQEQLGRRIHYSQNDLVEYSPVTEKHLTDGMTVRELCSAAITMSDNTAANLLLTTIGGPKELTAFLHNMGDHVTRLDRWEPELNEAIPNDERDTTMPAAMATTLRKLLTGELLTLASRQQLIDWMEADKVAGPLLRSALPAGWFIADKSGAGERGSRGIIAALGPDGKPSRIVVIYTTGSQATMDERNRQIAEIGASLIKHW

INS1 = test: beta cell apoptosis inhibitors, cytokine rescue, dose response, luminescence, retest (AID 449756); format: functional, cell-based; conditions: Rattus norvegicus;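 further: cell death triggered by IL-1 beta plus TNF-alpha plus IFN-gamma mixture; protective hits raise ATP signal compared with cytokine alone wells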
[29] = biological target: ATP-dependent molecular chaperone HSP82 (Candida albicans (strain WO-1) (Yeast), UniProt C4YTQ8); test: loss of DOC-induced GRE-beta-galactosidase reporter signal, dose response, Hsp90 inhibitor project, S. cerevisiae, luminescence (AID 2400); format: functional, cell-based;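 further: beta-galactosidase luminescence from glucocorticoid response element reporter as proxy for Hsp90 function; inhibitor potency where signal loss means Hsp90 inhibition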
Chain of ATP-dependent molecular chaperone HSP82 (C4YTQ8 whole entry, the tested form may be a part): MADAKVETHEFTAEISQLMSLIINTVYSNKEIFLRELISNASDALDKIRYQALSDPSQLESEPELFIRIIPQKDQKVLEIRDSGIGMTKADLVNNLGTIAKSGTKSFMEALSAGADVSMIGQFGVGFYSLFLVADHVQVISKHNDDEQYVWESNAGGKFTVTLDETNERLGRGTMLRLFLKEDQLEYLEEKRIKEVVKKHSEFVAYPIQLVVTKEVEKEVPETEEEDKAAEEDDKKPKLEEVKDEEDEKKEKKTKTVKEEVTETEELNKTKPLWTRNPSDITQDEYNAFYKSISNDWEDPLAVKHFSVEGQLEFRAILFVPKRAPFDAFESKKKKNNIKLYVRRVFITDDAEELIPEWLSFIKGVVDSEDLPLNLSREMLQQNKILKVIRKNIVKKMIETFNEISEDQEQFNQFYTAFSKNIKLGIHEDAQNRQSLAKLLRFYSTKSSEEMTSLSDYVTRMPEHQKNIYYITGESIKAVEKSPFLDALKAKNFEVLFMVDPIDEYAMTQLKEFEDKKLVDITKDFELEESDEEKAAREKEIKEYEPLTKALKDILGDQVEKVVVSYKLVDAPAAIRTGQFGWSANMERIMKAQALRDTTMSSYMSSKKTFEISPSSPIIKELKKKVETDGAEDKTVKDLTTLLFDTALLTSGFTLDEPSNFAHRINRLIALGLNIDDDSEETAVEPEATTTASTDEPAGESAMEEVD

[30] = biological target: Hepatocyte nuclear factor 4-alpha (Homo sapiens, UniProt P41235); format: functional, cell-based;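 further: biochemical luminescence-based dose-response counterscreen measuring inhibition of HNF4 dimerization, run alongside a screen for blockers of ABHD5–perilipin-5 interaction; split luciferase complementation of HNF4 fusion proteins in cell lysate measuring dimerization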
Chain of Hepatocyte nuclear factor 4-alpha (P41235 whole entry, the tested form may be a part): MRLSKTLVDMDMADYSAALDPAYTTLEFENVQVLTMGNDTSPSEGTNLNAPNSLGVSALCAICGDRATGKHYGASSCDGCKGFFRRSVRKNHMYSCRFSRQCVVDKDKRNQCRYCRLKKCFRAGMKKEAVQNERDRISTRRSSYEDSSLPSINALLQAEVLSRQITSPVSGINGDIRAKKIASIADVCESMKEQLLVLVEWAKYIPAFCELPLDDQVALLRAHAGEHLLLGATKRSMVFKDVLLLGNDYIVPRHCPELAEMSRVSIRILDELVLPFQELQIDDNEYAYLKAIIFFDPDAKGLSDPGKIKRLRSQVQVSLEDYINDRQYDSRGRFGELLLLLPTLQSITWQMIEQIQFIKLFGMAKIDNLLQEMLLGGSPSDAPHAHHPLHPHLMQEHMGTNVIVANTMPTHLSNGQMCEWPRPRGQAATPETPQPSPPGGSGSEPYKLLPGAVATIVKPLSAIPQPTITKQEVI

[31] = inhibitors of HIV Env-driven cell fusion, dose response, cherry-pick (AID 652057); format: functional, cell-based
[32] = CEM21 lymphoblast cell cytotoxicity, dose response, cytotoxicity control for viral fusion inhibitor project, CellTiter-Glo luminescence, cherry-picked (AID 652042); format: functional, cell-based;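 further: potency for signal decrease meaning cytotoxicity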
[33] = ZM109 Env clade C HIV-1 fusion inhibitors, dose response, HeLa effector, CEM target cells, luciferase, cherry-pick (AID 652058); format: functional, cell-based
[34] = off-target signal loss in HeLa-CEM21 co-culture – HeLa F-luc CTL cells, cherry-picked, counter-screen for HIV-1 Env fusion inhibitor project, dose response (AID 652040); format: functional, cell-based;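 further: potency for signal decrease marking cytotoxic or nonspecific inhibition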
[35] = inhibitors of clade B AD8 Env fusion, dose response, cell-based, cherry-pick (AID 652062); format: functional;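 further: luciferase signal from cell-cell fusion driven by HIV-1 clade B AD8 Env; potency is for inhibitors of fusion seen as a drop in luminescence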

## CCN1CCN(c2ccc(S(=O)(=O)N3CCCCC3)cc2NC(=O)COc2ccc(F)cc2Cl)CC1
[1]
  EC50: 474 nM (active)
[2]
  EC50: > 60000 nM (not active)
[3]
  IC50: 3240 nM (active)
[4]
  IC50: 5240 nM (active)

## O=[N+]([O-])c1ccc(CSc2nnc(-c3ccccn3)n2Cc2ccco2)cc1
[5]
  EC50: 2350 nM (active)
Mu-type opioid receptor
  EC50: > 32000 nM (inactive)
[6]
  EC50: > 64000 nM (inactive)
[7]
  EC50: 2480 nM (active)

## COc1ccc(CN(CCNC(=O)c2cccc(CNS(=O)(=O)c3ccc(C)cc3)c2)C(C)C)cc1
[8]
  IC50: > 20000 nM (inactive)
[9]
  IC50: 9030 nM (active)

## CCN1/C(=C/C=C/c2oc3ccc(-c4ccccc4)cc3[n+]2CC)Oc2ccc(-c3ccccc3)cc21
[10]
  EC50: 3160 nM (inconclusive)
[11]
  EC50: < 100 nM (active)
[12]
  EC50: 696 nM (active)
[13]
  EC50: 1500 nM (active)
BJ [14]
  EC50: 1630 nM (inconclusive)
cells
  EC50: 863 nM (active)
[15]
  EC50: < 100 nM (active)
[16]
  EC50: < 100 nM (active)
BJ [17]
  EC50: 1320 nM (inconclusive)
[18]
  EC50: 976 nM (active)
[19]
  CC50: 1560 nM (active)
[20]
  EC50: 104000 nM (active)
BJ [21]
  EC50: 3420 nM (inconclusive)
[22]
  EC50: 1040 nM (inconclusive)
Streptococcus
  EC50: 3890 nM (active)
[23]
  EC50: 659 nM (active)
[24]
  IC50: 9070 nM (active)
[25]
  EC50: 24200 nM (active)
[26]
  IC50: > 100000 nM (inactive)
[27]
  EC50: 22200 nM (active)
CHO
  IC50: 1450 nM (active)
BJ [28]
  EC50: < 104 nM (active)
Beta Lactamase
  IC50: 10700 nM (inactive)
INS1
  AC50: 230 nM (active)
[29]
  EC50: 23600 nM (active)
[30]
  IC50: 3880 nM (active)
[31]
  AC50: 1150 nM (active)
[32]
  AC50: 1590 nM (active)
[33]
  AC50: 3770 nM (active)
[34]
  AC50: 6770 nM (active)
[35]
  AC50: 2550 nM (active)
